The experiment has as its system P388. Kind of experiment: Cytostatic activity against mouse P388 cells. The format is functional. The conditions noted are these: read-out: ED50 (the source's name).

We go through one compound from ChEMBL document CHEMBL1150185, “Antineoplastic agents, 195. Isolation and structure of aceratioside from Aceratium megalospermum” (1990).

In brackets after ≈: the same amount, converted by molar mass.

For `O=C(O)[C@H]1CCc2c(cc(O)cc2O[C@@H]2O[C@H](CO)[C@@H](O)[C@H](O)[C@H]2O)C1` [ACERATIOSIDE], the EC50 came to 9 µg/mL (≈ 24.3 µM).
